Source: patent US12570675B2, “Boronic acid compounds” (LG CHEM, LTD., priority 2020, dated 2026)

What was measured:
[1] = molecular target: Proteasome chymotrypsin-like activity (S26 protein from RPMI8226 cells) (Homo sapiens, UniProt P28074); assay type: biochemical; conditions: S26 protein from RPMI8226 cell extract 2 ug/well, substrate 20 uM, 37° C., 90 minutes; read-out: Proteasome chymotrypsin-like activity inhibition IC50
How it was run: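 S26 proteasome fraction from homogenized RPMI8226 myeloma cells in 20 mM Tris-HCl pH 8.0 (2 ug extract/well) incubated 90 min at 37 °C with compound serially diluted from 10 uM (0.5% DMSO).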

[2] = molecular target: Proteasome caspase-like activity (S26 protein from RPMI8226 cells) (Homo sapiens (Human), UniProt P28072); assay: Proteasome caspase-like activity inhibition (Z-Leu-Leu-Glu-AMC fluorogenic substrate, RPMI8226 cell extract); assay type: biochemical; conditions: S26 protein from RPMI8226 cell extract 2 ug/well, substrate 20 uM, 37° C., 90 minutes
Sequence of Proteasome caspase-like activity (S26 protein from RPMI8226 cells) (P28072 whole entry): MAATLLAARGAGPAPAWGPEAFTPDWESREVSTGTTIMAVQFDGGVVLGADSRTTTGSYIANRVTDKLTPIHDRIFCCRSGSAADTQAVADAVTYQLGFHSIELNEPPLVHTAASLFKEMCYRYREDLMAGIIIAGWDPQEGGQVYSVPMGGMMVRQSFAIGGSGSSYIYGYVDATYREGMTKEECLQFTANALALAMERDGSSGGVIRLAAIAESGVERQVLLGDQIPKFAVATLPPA
Method: The abilities to inhibit the proteasome activity of the compounds described in the Examples of the present invention and boronic acid drugs were evaluated as follows.
RPMI8226 cells, which is a multiple myeloma cell line, were cultured and then separated by a centrifuge, and washed twice with phosphate buffered saline (PBS). 20 mM of a tris-HCl (pH 8.0) buffer solution was added to the washed cells, and the cells were disrupted by a homogenizer and centrifuged to obtain S26 protein from the supernatant. Suc-Leu-Leu-Val-Tyr-AMC, for a fluorogenic substrate for the chymotrypsin-like activity of the proteasome, and Z-Leu-Leu-Glu-AMC, for a fluorogenic substrate for the caspase-like activity, were purchased from Calbiochem, EMD Millipore and used. Into each well of a 96-well plate (opaque, black round bottom), 20 ul of the S26 protein (final RPMI8226 cell extract concentration: 2 ug/well), 10 ul of S26 proteasome inhibitor serially diluted from 10 uM (final DMSO concentration: 0.5%), and 20 ul of the fluorogenic substrate for the proteasome chymotrypsin-like or caspase-like activity (final concentration: 20 uM) were added and mixed and allowed to react in a 37° C. incubator for 90 minutes. The fluorescence of the fluorogenic substrate was measured by FlexStation II Fluorometer (Molecular Devices). The fluorescence inhibited by the compound diluted at each concentration was measured as the relative percentage value for the amount obtained from the treatment only with the S26 protein and the fluorogenic substrate. IC50 (inhibitory concentration 50) was expressed in terms of a concentration that inhibits 50% of the maximum fluorescence induced by the fluorogenic substrate.

Sequence of Proteasome chymotrypsin-like activity (S26 protein from RPMI8226 cells) (P28074 60-263 limits assumed): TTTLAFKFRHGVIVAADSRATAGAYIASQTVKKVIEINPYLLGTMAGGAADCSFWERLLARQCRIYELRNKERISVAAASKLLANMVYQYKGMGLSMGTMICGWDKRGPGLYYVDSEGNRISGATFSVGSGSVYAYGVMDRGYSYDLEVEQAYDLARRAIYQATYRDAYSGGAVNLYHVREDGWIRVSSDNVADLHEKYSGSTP

Row | Structure (SMILES) | IC50 [1] [nM] | IC50 [2] [nM]
1 | CC(C)C[C@H](NC(=O)C1(Cc2ccccc2)CC([C@@H](NC(=O)c2nccc3ccccc23)C(C)C)=NO1)B(O)O (stereo partly drawn) [Example 148, ((1R)-1-(5-benzyl-3-((S)-1-(isoquinolin-1-carboxamido)-2-methylpropyl)-4,5-dihydroisoxazol-5-carboxamido)-3-methylbutyl)boronic acid] | < 25 | > 1000
2 | Cc1cnc(C(=O)NCC2=NOC(Cc3ccccc3)(C(=O)N[C@@H](CC(C)C)B(O)O)C2)cn1 (stereo partly drawn) [Example 151, [(1R)-1-[[5-benzyl-3-[[(5-methylpyrazin-2-carbonyl)amino]methyl]-4H-1,2-oxazol-5-carbonyl]amino]-3-methyl-butyl]boronic acid] | < 10 | > 250
3 | CC(C)C[C@H](NC(=O)C1(Cc2ccccc2)CC([C@H](CC(C)C)NC(=O)c2nccc3ccccc23)=NO1)B(O)O (stereo partly drawn) [Example 152, ((1R)-1-(5-benzyl-3-((S)-1-(isoquinolin-1-carboxamido)-3-methylbutyl)-4,5-dihydroisoxazol-5-carboxamido)-3-methylbutyl)boronic acid] | < 10 | > 1000
4 | COC[C@H](NC(=O)c1nccc2ccccc12)C1=NOC(Cc2ccccc2)(C(=O)N[C@@H](CC(C)C)B(O)O)C1 (stereo partly drawn) [Example 153, ((1R)-1-(5-benzyl-3-((R)-1-(isoquinolin-1-carboxamido)-2-methoxyethyl)-4,5-dihydroisoxazol-5-carboxamido)-3-methylbutyl)boronic acid] | < 10 | > 500
5 | Cc1cccc(C(=O)NCC2=NOC(Cc3ccccc3)(C(=O)N[C@@H](CC(C)C)B(O)O)C2)n1 (stereo partly drawn) [Example 160, ((1R)-1-(5-benzyl-3-((6-methylpicolinamido)methyl)-4,5-dihydroisoxazol-5-carboxamido)-3-methylbutyl)boronic acid] | < 10 | > 500
6 | CC(C)C[C@H](NC(=O)C1(Cc2ccccc2)CC(CNC(=O)c2ccnn2C(C)C)=NO1)B(O)O (stereo partly drawn) [Example 171, ((1R)-1-(5-benzyl-3-((1-isopropyl-1H-pyrazol-5-carboxamido)methyl)-4,5-dihydroisoxazol-5-carboxamido)-3-methylbutyl)boronic acid] | < 10 | > 500

The next lines start with the values.

Row | IC50 [1] [nM] | IC50 [2] [nM] | Structure (SMILES)
7 | < 10 | > 2500 | CC(C)C[C@H](NC(=O)C1(Cc2ccccc2)CC([C@H](C)NC(=O)c2nccc3ccccc23)=NO1)B(O)O (stereo partly drawn) [Example 145, ((1R)-1-(5-benzyl-3-((S)-1-(isoquinolin-1-carboxamido)ethyl)-4,5-dihydroisoxazol-5-carboxamido)-3-methylbutyl)boronic acid]
8 | < 10 | > 500 | Cc1ccccc1CC1(C(=O)N[C@@H](CC(C)C)B(O)O)CC(CNC(=O)c2nccc3ccccc23)=NO1 (stereo partly drawn) [Example 154, ((1R)-1-(3-((isoquinolin-1-carboxamido)methyl)-5-(2-methylbenzyl)-4,5-dihydroisoxazol-5-carboxamido)-3-methylbutyl)boronic acid]
9 | < 25 | > 1000 | CC(C)C[C@H](NC(=O)C1(CCc2ccccc2)CC(CNC(=O)c2nccc3ccccc23)=NO1)B(O)O (stereo partly drawn) [Example 162, ((1R)-1-(3-((isoquinolin-1-carboxamido)methyl)-5-penetyl-4,5-dihydroisoxazol-5-carboxamido)-3-methylbutyl)boronic acid]
10 | < 10 | > 1000 | CC(C)C[C@H](NC(=O)C1(Cc2ccccc2F)CC(CNC(=O)c2nccc3ccccc23)=NO1)B(O)O (stereo partly drawn) [Example 170, ((1R)-1-(5-(2-fluorobenzyl)-3-((isoquinolin-1-carboxamido)methyl)-4,5-dihydroisoxazol-5-carboxamido)-3-methylbutyl)boronic acid]
11 | < 10 | > 1000 | CC(C)C[C@H](NC(=O)C1(Cc2ccc(F)cc2F)CC(CNC(=O)c2nccc3ccccc23)=NO1)B(O)O (stereo partly drawn) [Example 178, ((1R)-1-(5-(2,4-difluorobenzyl)-3-((isoquinolin-1-carboxamido)methyl)-4,5-dihydroisoxazol-5-carboxamido)-3-methylbutyl)boronic acid]
